# Entries after “also recorded” stand apart in the source; their conditions may differ. Residues, ends and D or L forms follow the SMILES beside them.
# Tests used:
# [1] = test system: transgenic thymocytes; experiment: Negative selection of transgenic thymocytes after i.p. peptide injection into TCR^TgTCRα^− mice (wild type A^b); format: in vivo, mouse; conditions: 24 hours; for negative selection / deletion of transgenic thymocytes: 200 μg/mouse i.p.
# Protocol: (§1) Flow cytometry analysis. Monoclonal antibodies specific for CD4(RM4-5), CD8(53-6.7), VβB8(F23.1), CD69(H1.2F3), CD44(IM7) and CD62L(MEL-14) were purchased from PharMingen (San Diego, Calif.) and used according to manufacturer's recommendations. Cells were analyzed using a FACSCalibur instrument (Becton Dickinson, San Jose, Calif.) and CellQuest software. For intracellular stain cells were first stained for CD4 and CD8, fixed in 2% paraformaldehyde, permeabilized in 0.1% Tween-20 and stained with anti-bcl-2 antibody (Pharmingen) according to manufacturer instruction.
# (§2) Peptide injections and surgical procedures. TCR^TgTCRα^− and TCR^TgTCRαH2-M^−Ii^− were injected i.p. with agonist and control peptides dissolved in PBS. After indicated time mice were sacrificed, thymus and lymph nodes were collected and single cell suspensions were prepared. Pups were injected with 2 μg of peptide subcutaneously 12-24 hours after birth and thymi were transplanted into recipient mice 24 hours after injection. 5-8 week old TCR^TgTCRα^− H2-M^−Ii^− mice were used for thymectomy or as thymic transplant recipients. Surgical procedures were performed as described (Coligan et al., 1997). Mice were handled according with the institutional guidance.
# Characterization of peptide agonists for the PCC specific transgenic αβTCR. To examine the role of peptides during positive selection in vivo, the inventors generated transgenic mice expressing class II restricted TCR specific for analogs of a pigeon cytochrome C peptide PCC(43-58) presented by the A molecule (Kraj et al., 2001). This receptor recognizes analogs of PCC(43-58) in which aspartic acid in position 50 is replaced by amino acids with neutral/hydrophobic (PCC50V, PCC50V54A, PCC46A49A50V54A, PCC50L, PCC50F) side chains (FIG. 6 and FIG. 9). The TCR transgenic mice were backcrossed to C57BL6 TCRα^− knockout mice so that almost all T cells expressing transgenic TCR become CD4^+ T cells (FIG. 4A and FIG. 10A). Initially, the inventors examined the capacity of agonist peptides to induce negative selection of transgenic T cells.
# [2] = test system: TCR^TgTCRα^− lymph node cells; experiment: Proliferation of TCR transgenic lymph node cells stimulated with agonist peptides ([3H]thymidine incorporation); format: cell-based, mouse; conditions: for agonist potency / agonist properties: in vitro stimulation of transgenic T cells; for recognition by the transgenic TCR / stimulation of transgenic cells: peptides presented by irradiated C57BL6 splenocytes
# Protocol: Antigen response of TCR transgenic cells. Proliferation of lymph node cells isolated from TCR^TgTCRα^−and TCR^TgTCRα^−2-M^−Ii^− mice injected with the selecting peptide was measured in response to antigen. Response of the TCR^TgTCRα^− lymph node cells to different agonist peptides was measured by proliferation assay in a 96-well plate. 10^5 responder cells were stimulated with peptides presented by 5×10^5 irradiated C57BL6 splenocytes. Agonist peptides were used at concentrations of 0.01, 0.1, 0.5, 1.0, 2.5, 5.0, 10.0 and 20.0 μM. After 3 days cells were pulsed with 1 μCi of [^3H]thymidine added to each well and after 18 hours thymidine incorporation was measured. The sequences of peptides used were: PCC50V (AEGFSYTVANKNKGIT), PCC50L (AEGFSYTLANKNKGIT), PCC50V54A (AEGFSYTVANKAKGIT), PCC46A49A50V54A (AEGASYAVANKAKGIT), PCC50F54A (AEGFSYTFANKAKGIT), neutral ceramidase (AGFFQYTLYILASEG) and IgGVH (NADFKTPATLTVDKA). All peptides were synthesized by FMOC (fluorenyl methoxycarbonyl) chemistry and purified by reversed-phase high-performance liquid chromatography. To compare the antigenic response of CD4^+ TCR Tg cells lymph node cells were collected from TCR^TgTCRα^− and TCR^TgTCRα^−H2-M^−Ii^− mice two weeks after peptide injection. Single cell suspensions were prepared and CD4^+ cells were sorted using magnetic beads coated with anti CD4 antibodies (MACS). Purity of sorted cells exceeded 85%. 2×10^4 of purified CD4^+ cells were used in proliferation assay. Cells were stimulated with increasing concentrations of agonist peptides presented by APCs from wild type or H2-M^−Ii^− mice. IgGVH derived peptide (20 μM) was used as a negative control. Peptides were presented by irradiated splenocytes from a C57BL6 mouse. Proliferation was measured after 3 days by thymidine incorporation by pulsing cells with 1 μCi of [^3H] thymidine for 18 hours. Antagonism assay was done by prepulsing 5×10^5 antigen-presenting cells per well for 2 hr. with 5 μM of the antigenic peptide PCC50V54A, washing, and then exposing them to varying concentrations of peptide analogs with 2×10^4 purified CD4^+ TCR^Tg lymphocytes as responder cells (Lyons et al., 1996). For antagonism assays the percent of proliferation inhibition was calculated as 100-100*(thymidine incorporation in the presence of antagonist/thymidine incorporation in the absence of antagonist) (Lyons et al., 1996).
# [3] = test system: transgenic CD4^+ thymocytes; experiment: Positive selection of CD4^+ thymocytes after peptide injection into TCR^TgTCRα^−H2-M^−Ii^− mice (flow cytometry of thymus); format: in vivo, mouse; conditions: for positive selection of transgenic thymocytes: i.p., non-deleting dose (20 μg); for percentage of CD4^+ single positive cells (thymus): 3 days after peptide injection; for effect on thymic selection: exogenous peptides without agonist properties
# Excerpt: Mice. The TCR genes were cloned from T cell hybridoma specific for analogs of the PCC(43-58) peptide and expressed in VA-hCD2 cassette (Ignatowicz et al., 1997; Kraj et al., 2001; Zhumabekov et al., 1995). All TCR transgenic mice were made by co-microinjection of the respective […] and TCRβ constructs into fertilized eggs of F1 (C57BL/6×CBA/Ca) mice. TCR Tg mice were crossed to C57B16/TCRα^− (Jackson Laboratory, ME) mice and to mice deficient in H2-M (kindly provided by E. Bikoff and R. Germain) and Ii (kindly provided by L. van Kaer) to obtain TCR^TgTCRα^− H2-M^−Ii^−.
# as §1, §2
# [4] = test system: peptide selected CD4^+ cells; experiment: Antigen response (proliferation) of lymph node CD4^+ cells from peptide-injected TCR^TgTCRα^−H2-M^−Ii^− mice; format: cell-based, mouse
# Protocol: Antigen response of TCR transgenic cells. Proliferation of lymph node cells isolated from TCR^TgTCRα^−and TCR^TgTCRα^−2-M^−Ii^− mice injected with the selecting peptide was measured in response to antigen. Response of the TCR^TgTCRα^− lymph node cells to different agonist peptides was measured by proliferation assay in a 96-well plate. 10^5 responder cells were stimulated with peptides presented by 5×10^5 irradiated C57BL6 splenocytes. Agonist peptides were used at concentrations of 0.01, 0.1, 0.5, 1.0, 2.5, 5.0, 10.0 and 20.0 μM. After 3 days cells were pulsed with 1 μCi of [^3H]thymidine added to each well and after 18 hours thymidine incorporation was measured. The sequences of peptides used were: PCC50V (AEGFSYTVANKNKGIT), PCC50L (AEGFSYTLANKNKGIT), PCC50V54A (AEGFSYTVANKAKGIT), PCC46A49A50V54A (AEGASYAVANKAKGIT), PCC50F54A (AEGFSYTFANKAKGIT), neutral ceramidase (AGFFQYTLYILASEG) and IgGVH (NADFKTPATLTVDKA). […] Proliferation was measured after 3 days by thymidine incorporation by pulsing cells with 1 μCi of [^3H] thymidine for 18 hours. […] For antagonism assays the percent of proliferation inhibition was calculated as 100-100*(thymidine incorporation in the presence of antagonist/thymidine incorporation in the absence of antagonist) (Lyons et al., 1996).
# [5] = test system: lymph node cells; experiment: Repopulation of peripheral lymph nodes in peptide-injected TCR^TgTCRα^−H2-M^−Ii^− mice; format: in vivo, mouse; conditions: for percentage of CD4^+ positive cells (lymph node): analyzed 12 days after injection
# Protocol: as §1, §2
# [6] = test system: OT-II transgenic thymocytes; experiment: Selection of OT-II transgenic thymocytes in OT-II TCRα^−→TCRα^−H2M^−Ii^− chimeras after peptide injection; format: in vivo, mouse
# Excerpt: OT-II agonist peptide may be used for positive selection of transgenic CD4^+ cells. Injection of a low dose of agonist peptides restores positive selection of OT-II transgenic CD4^+ T cells in […] →TCRα^−2-M^−Ii^− chimeras. OT-II transgenic mice (C57BL/6TgN(TcrOva)) express a Class II restricted T cell receptor for ovalbumin residues 323-339 in the context of H-2^b. To determine if the experimental approach can be applied to other transgenic CD4^+ T cells, radiation chimeras were generated where TCRα^−H2-H2-M^−Ii^− mice were lethally irradiated and reconstituted with fetal liver from OT-II^TgTCRα^− mice. In these chimeras the development of OT-II^TgTCRα^− thymocytes is arrested at the CD4^+CD8^+ stage due to the lack of endogenous selecting peptides. After 8 weeks chimeras were injected once with different doses of the agonist Ova(323-339) peptide, which is a peptide present in the ovalbumin protein.
compound,measurement,setting,value
"AEGFSYTLANKNKGIT [PCC50L, analog of PCC(43-58)]",negative selection / deletion of transgenic thymocytes,[1],induced profound negative selection
same,agonist potency / agonist properties,[2],Strong agonists
same,recognition by the transgenic TCR / stimulation of transgenic cells,[2],recognizes; also recorded: stimulate
same,positive selection of transgenic thymocytes,[3],restored positive selection
AGFFQYTLYILASEG [neutral ceramidase],response of peptide selected CD4^+ cells to agonist peptides in vitro,[4],weakly proliferated; also recorded: respond in vitro
same,CD4^+ cells in peripheral lymph nodes,"[5]; after i.p. injection, about two weeks",appeatence of CD4^+ lymphocytes in the peripheral lymph nodes
same,percentage of CD4^+ positive cells (lymph node),[5],7.6±1.8 percentage
same,agonist potency / agonist properties,[2],weak agonist
same,positive selection of transgenic CD4^+ thymocytes,[3]; 50 μg i.p.,weak positive selection; also recorded: mediates positive selection
same,percentage of CD4^+ single positive cells (thymus),[3]; 50 μg i.p.,1.7±0.6 percentage
"AEGFSYTVANKNKGIT [PCC50V, analog of PCC(43-58)]",negative selection of transgenic thymocytes,"[1]; 20 μg i.p., thymus cellularity, annexin V, TUNNEL",did not induce negative selection
same,negative selection / deletion of transgenic thymocytes,[1],induced only marginal deletion; also recorded: induced only limited deletion
same,agonist potency / agonist properties,[2],moderate agonist
same,recognition by the transgenic TCR / stimulation of transgenic cells,[2],recognizes; also recorded: stimulate
same,positive selection of transgenic thymocytes,[3],restored positive selection
"AEGFSYTFANKAKGIT [PCC50F54A, analog of PCC(43-58); agonist]",recognition by the transgenic TCR / stimulation of transgenic cells,[2],stimulate
same,positive selection of transgenic thymocytes,[3],restored positive selection
CC[C@H](C)[C@H](NC(=O)CNC(=O)[C@H](CCCCN)NC(=O)[C@H](CC(N)=O)NC(=O)[C@H](CCCCN)NC(=O)[C@H](CC(N)=O)NC(=O)[C@H](C)NC(=O)[C@H](CCC(=O)O)NC(=O)[C@@H](NC(=O)[C@H](Cc1ccc(O)cc1)NC(=O)[C@H](CO)NC(=O)[C@H](Cc1ccccc1)NC(=O)CNC(=O)[C@H](CCC(=O)O)NC(=O)[C@H](C)N)[C@@H](C)O)C(=O)N[C@H](C(=O)O)[C@@H](C)O [PCC50E] (H-AEGFSYTEANKNKGIT-OH),number of CD4^+ thymocytes positively selected by PCC50V54A on co-injection of antagonist,"[3]; 3 μg antagonist + 3 μg PCC50V54A, four days later",significantly reduced
"AEGASYAVANKAKGIT [PCC46A49A50V54A, analog of PCC(43-58); agonist]",recognition by the transgenic TCR / stimulation of transgenic cells,[2],recognizes
same,positive selection of transgenic thymocytes,[3],restored positive selection
"NADFKTPATLTVDKA [IgGVH, reference compound]",percentage of CD4^+ positive cells (lymph node),[5],2.4±0.8 percentage
same,percentage of CD4^+ single positive cells (thymus),[3]; 50 μg i.p.,0.8±0.4 percentage
same,effect on thymic selection,[3],had no effect on thymic selection
"Ova(323-339): peptide present in the ovalbumin protein; agonist for the OT-II TCR (KISQAVHAAHAEINEAG; UniProt P01012 323-339, looked up, fragment)",negative selection of transgenic thymocytes,[6]; high dose (100 μg and above),induced negative selection
same,selection of CD4^+ thymocytes,[6]; low dose (5-20 μg),induced selection of a significant number of CD4^+ thymocytes
same,response of selected thymocytes to selecting peptide,"[6]; mouse, in vivo",continued to respond to stimulation by selecting peptide; also recorded: retain their ability to respond to selecting peptide
same,selection of transgenic CD4^+ thymocytes,"[6]; single injection of 10 μg, 48 and 72 hours",initiates selection of transgenic CD4^+Vβ5^+ thymocytes
same,effect on thymic selection,[3],had no effect on thymic selection

# — US20030021796A1, “Method of enhancing T cell immunity by selection of antigen specific T cells” (priority 2001, published 2003)
